# Test results: patent US20120225909A1, “INDAZOLE ANALOG” (priority 2009, published 2012)
# What was measured:
# [1] = system: Male C57BL/6 Cr mice; assay: Test Case 10: mouse piloerection test; format: in vivo
# Method: Male C57BL/6 Cr mice (Japan SLC) are used. The dissolved compound is administered rapidly via a caudal vein. The animal is placed on the observation stand 5, 15, 30, and 60 minutes after administration, and the state of piloerection is observed. The state of piloerection is evaluated by the following 7-level scoring system according to the examples by the method of Irwin (Psychopharmacologia 1968, 13; 222-257).
# Scoring system: “Score 0”: No piloerection at all; “Score 1”: Slight piloerection (piloerection on part of the body such as the back or neck); “Score 2”: Moderate piloerection (piloerection over the entire body); “Score 3”: Marked piloerection (piloerection over the entire body, conspicuous to the extent that the skin can be seen).
# “Score 0.5” is between “Score 0” and “Score 1” “Score 1.5” is between […]. “Score 2.5” is between “Score 2” and “Score 3.”
# [2] = molecular target: T1, human β3-adrenergic receptor (Homo sapiens, UniProt P13945); assay: Test Case 1-B: human β3-adrenergic receptor agonist activity (cAMP-Screen, 96-well); format: cell-based; settings: for EC50 / β3 receptor I.A.: Test Case 1-B; for EC50: CHO cells, cAMP; for β3 receptor I.A.: maximum response of isoproterenol = 100%; for Emax: 0.5 h, read-out: β3 receptor I.A.
# T1 construct: A full-length human β3 gene is obtained from a human genomic library (made by Clontech) using this as the probe; expressed in transfected cells; host or cells: CHO (Chinese hamster ovary) cells, pcDNA3
# Summary of the method: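 CHO cells stably transfected with full-length human β3 gene, serum-starved 15 min, then exposed to serially diluted compound in Ham's F-12 with 100 mmol/L HEPES and 1 mmol/L IBMX (diluent concentrations) for 30 min. Cells lysed 30 min at 37 °C; cAMP quantified by cAMP-Screen immunoassay.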
# [3] = molecular target: T2, human α1A-adrenergic receptor (Homo sapiens, UniProt P35348); assay: Test Case 4-A: human α1A-adrenergic receptor agonist activity (HEK293, Ca flux, Fura-2); format: cell-based; set-up: expressed in transfected cells; host or cells: HEK293 cells, pcDNA3.1; settings: for α1A receptor I.A.: Test Case 4-A, maximum response of norepinephrine = 100%, Table 4; for Emax: HEK293, read-out: α1A receptor I.A.
# T2 sequence (P35348 1-466): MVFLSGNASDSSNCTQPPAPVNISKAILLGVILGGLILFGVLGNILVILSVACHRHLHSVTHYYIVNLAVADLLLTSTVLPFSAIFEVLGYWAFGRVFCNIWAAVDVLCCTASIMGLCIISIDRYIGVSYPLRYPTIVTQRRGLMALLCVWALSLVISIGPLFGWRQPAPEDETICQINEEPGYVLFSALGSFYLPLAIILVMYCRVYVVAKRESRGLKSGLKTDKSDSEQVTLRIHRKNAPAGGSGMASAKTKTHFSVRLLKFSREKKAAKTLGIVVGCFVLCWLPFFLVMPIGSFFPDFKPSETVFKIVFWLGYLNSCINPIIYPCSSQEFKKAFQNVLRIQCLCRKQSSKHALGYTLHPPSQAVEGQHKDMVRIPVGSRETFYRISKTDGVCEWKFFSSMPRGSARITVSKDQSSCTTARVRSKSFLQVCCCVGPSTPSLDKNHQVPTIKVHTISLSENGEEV
# Summary of the method: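 Fura-2AM-loaded HEK293 cells transfected with human α1A were preincubated for 180 s. Compound (sample plate 10^−5 to 10^−12 M) was added after ~30 s of 340/380 nm excitation ratio reading (500 nm emission, 2-s intervals), followed by 270 s more reading. Ca flux is the peak height: maximum ratio after addition minus the pre-addition ratio.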
# [4] = molecular target: T3, human β2-adrenergic receptor (Homo sapiens, UniProt P07550); assay: Test Case 3-B: human β2-adrenergic receptor agonist activity; format: cell-based; settings: for β2 receptor I.A.: Test Case 3-B, maximum response of isoproterenol = 100%; for Emax: read-out: β2 receptor I.A.
# T3 construct: expressed in transfected cells; host or cells: CHO (Chinese hamster ovary) cells, pcDNA3
# Method: (§1) Measurement of Human β2-Adrenergic Receptor Agonist Activity
# The human β2-adrenergic receptor agonist activity is measured by the same method as in Test Case 1-B using CHO (Chinese hamster ovary) cells transfected by a human β2 gene inserted in pcDNA3 (Invitrogen).
# [5] = molecular target: T4, human β1-adrenergic receptor (Homo sapiens, UniProt P08588); assay: Test Case 2-B: human β1-adrenergic receptor agonist activity; format: cell-based; settings: for β1 receptor I.A.: Test Case 2-B, maximum response of isoproterenol = 100%; for Emax: read-out: β1 receptor I.A.
# T4 construct: expressed in transfected cells; host or cells: CHO (Chinese hamster ovary) cells, pcDNA3
# Method: (§2) Measurement of Human β1-Adrenergic Receptor Agonist Activity
# The human β1-adrenergic receptor agonist activity is measured by the same method as in Test Case 1-B using CHO (Chinese hamster ovary) cells transfected by a human β1 gene inserted in pcDNA3 (Invitrogen).
# [6] = system: pentobarbital-anesthetized rats; assay: Test Case 9: effects on the blood pressure and heart rate in pentobarbital-anesthetized rats; format: in vivo, rat
# Method: Effects on the blood pressure and heart rate in pentobarbital-anesthetized rats
# The blood pressure and heart rate of rats under pentobarbital anesthesia are measured, and the effects of rapid intravenous administration of the test compound on the blood pressure and heart rate can be studied. After anesthetizing male SD rats (Japan SLC) by intraperitoneal administration of 50 mg/kg of pentobarbital sodium (Tokyo Chemical Industry Co., Ltd.), 25 mg/kg of pentobarbital sodium is administered subcutaneously as maintenance anesthesia. The left femoral vein is exposed and stripped, and a SP10 polyethylene tube filled with saline (connected to a three-way stopcock via a ¼ venous needle) is inserted and left in place in the vein.
# The inside of the left thigh is cut, and the femoral artery is exposed and stripped. A polyethylene tube filled with heparinized physiological saline solution (SP31, connected to a three-way stopcock via a Terumo injection needle 22G) is inserted and connected to a pressure transducer. The blood pressure is measured from the pressure transducer via a strain pressure amplifier (AP-641G, Nihon Kohden). The heart rate is measured with the pulse wave of the blood pressure as a trigger via a heart rate counter (AT-601G, Nihon Kohden). The blood pressure, mean blood pressure, and heart rate are output to a recorder and recorded. Furthermore, the mean blood pressure is recorded via the strain pressure amplifier (AP-641G) using the formula {[…]}.
# Specifically, 3 mg/mL of test compound is administered rapidly at a volume of 1 mL/kg. The relative value (%) of the values at each point in time versus the mean blood pressure and heart rate before beginning administration are determined for each individual, and the mean±standard deviation of the relative value (%) at the time of the maximum change in each parameter is determined.
# [7] = molecular target: T4, human β1-adrenergic receptor; assay: Test Case 2-C: human β1-adrenergic receptor agonist activity (Cerep cellular functional GPCR, beta 1); format: cell-based; settings: concentration 10 μM, isoproterenol = 100%
# Excerpt: as §2
# [8] = molecular target: T2, human α1A-adrenergic receptor; assay: Test Case 4-B: human α1A-adrenergic receptor agonist activity (Cerep cellular functional GPCR, alpha 1A); format: cell-based; set-up: expressed in transfected cells; settings: concentration 10 μM
# Excerpt: Measurement of Human α1A-Adrenergic Receptor Agonist Activity
# The human α1A-adrenergic receptor agonist activity] can be measured by […] Functional GPCR·Gs, alpha 1A (Ref. 722-36a) listed on p. 52 of the Cerep 2008 CATALOG IN VITRO PHARMACOLOGY & ADME-TOX.
# [9] = molecular target: T3, human β2-adrenergic receptor; assay: Test Case 3-C: human β2-adrenergic receptor agonist activity (Cerep cellular functional GPCR, beta 2); format: cell-based; settings: concentration 10 μM, isoproterenol = 100%
# Excerpt: as §1
# [10] = 10 mg/kg i.v., n=4, observation time 5 min, Score 0
# [11] = 10 mg/kg i.v., n=4, observation time 15 min, Score 0
# [12] = 10 mg/kg i.v., n=4, observation time 30 min, Score 0
# [13] = 10 mg/kg i.v., n=4, observation time 60 min, Score 0
# [14] = anesthetized male SD rats, 3 mg/kg intravenous over 30 seconds, maximum change, mean±standard deviation
# T4 sequence (P08588 whole entry): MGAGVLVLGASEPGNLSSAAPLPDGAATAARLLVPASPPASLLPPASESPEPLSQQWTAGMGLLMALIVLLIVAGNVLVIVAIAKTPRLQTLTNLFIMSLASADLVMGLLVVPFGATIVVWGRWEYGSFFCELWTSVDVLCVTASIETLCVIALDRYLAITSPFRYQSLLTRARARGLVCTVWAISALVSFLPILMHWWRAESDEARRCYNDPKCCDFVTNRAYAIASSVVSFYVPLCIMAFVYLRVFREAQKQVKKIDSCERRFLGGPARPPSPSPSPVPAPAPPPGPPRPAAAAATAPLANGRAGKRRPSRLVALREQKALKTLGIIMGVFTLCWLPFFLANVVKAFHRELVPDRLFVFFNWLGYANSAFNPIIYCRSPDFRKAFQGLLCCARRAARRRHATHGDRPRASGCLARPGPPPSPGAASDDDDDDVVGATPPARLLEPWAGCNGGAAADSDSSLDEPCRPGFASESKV
# T3 sequence (P07550 whole entry): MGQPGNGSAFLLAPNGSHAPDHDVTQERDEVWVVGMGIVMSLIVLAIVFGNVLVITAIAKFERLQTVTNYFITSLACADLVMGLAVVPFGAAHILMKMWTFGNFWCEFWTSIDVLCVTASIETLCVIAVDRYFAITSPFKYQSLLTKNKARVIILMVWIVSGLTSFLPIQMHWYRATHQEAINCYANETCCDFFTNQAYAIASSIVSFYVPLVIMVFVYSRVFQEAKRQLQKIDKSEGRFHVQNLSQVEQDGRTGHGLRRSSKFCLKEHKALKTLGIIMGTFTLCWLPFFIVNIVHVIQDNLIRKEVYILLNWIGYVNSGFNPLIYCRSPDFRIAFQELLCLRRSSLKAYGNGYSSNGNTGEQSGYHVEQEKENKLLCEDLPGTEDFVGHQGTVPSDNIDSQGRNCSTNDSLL
# T1 sequence (P13945 whole entry): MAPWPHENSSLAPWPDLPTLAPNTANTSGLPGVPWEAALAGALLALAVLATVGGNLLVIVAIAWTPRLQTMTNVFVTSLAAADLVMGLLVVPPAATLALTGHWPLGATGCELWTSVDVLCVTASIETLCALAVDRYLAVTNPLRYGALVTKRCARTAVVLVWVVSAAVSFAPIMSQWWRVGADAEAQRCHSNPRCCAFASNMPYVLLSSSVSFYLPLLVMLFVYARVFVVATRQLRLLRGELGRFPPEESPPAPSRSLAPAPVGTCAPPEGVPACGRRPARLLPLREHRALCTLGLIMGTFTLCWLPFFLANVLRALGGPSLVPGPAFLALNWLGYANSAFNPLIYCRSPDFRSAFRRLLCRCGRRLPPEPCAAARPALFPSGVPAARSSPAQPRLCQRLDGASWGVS
compound,measurement,setting,value
"COc1n[nH]c2cc(OCCNC[C@H](O)c3cccc(NS(=O)(=O)c4cccnc4)c3)ccc12 [ex44, (R)-N-(3-(1-hydroxy-2-(2-(3-methoxyindazol-6-yloxy)-ethylamino)ethyl)phenyl)py-ridine-3-sulfonamide]",number of experimental animals matching Score 0 (no piloerection),"[1]; in vivo, iv, 10 mg/kg",4
same,EC50,[2],13 nM
same,β3 receptor I.A.,[2],58%
same,α1A receptor I.A.,[3],0%
same,β2 receptor I.A.,[4],5%
same,β1 receptor I.A.,[5],9%
same,increase in MBP (%),"[6]; rat, in vivo, iv, 3 mg/kg",5.7 ± 3.0%
"COc1n[nH]c2cc(OCCNC[C@H](O)c3cccc(NS(=O)(=O)c4cccs4)c3)ccc12 [ex45, (R)-N-(3-(1-hydroxy-2-(2-(3-methoxyindazol-6-yloxy)-ethylamino)ethyl)phenyl)thio-phene-2-sulfonamide]",number of experimental animals matching Score 0 (no piloerection),"[1]; in vivo, iv, 10 mg/kg",1
same,EC50,[2],2.4 nM
same,β3 receptor I.A.,[2],80%
same,α1A receptor I.A.,[3],0%
same,β2 receptor I.A.,[4],2%
same,β1 receptor I.A.,[5],9%
same,increase in MBP (%),"[6]; rat, in vivo, iv, 3 mg/kg",3.9 ± 2.1%
"COc1n[nH]c2cc(OCCNC[C@H](O)c3cccc(NS(=O)(=O)c4ccsc4)c3)ccc12 [ex46, (R)-N-(3-(1-hydroxy-2-(2-(3-methoxyindazol-6-yloxy)-ethylamino)ethyl)phenyl)thio-phene-3-sulfonamide]",number of experimental animals matching Score 0 (no piloerection),"[1]; in vivo, iv, 10 mg/kg",4
same,EC50,[2],2.4 nM
same,β3 receptor I.A.,[2],78%
same,α1A receptor I.A.,[3],0%
same,β2 receptor I.A.,[4],−2%
same,β1 receptor I.A.,[5],5%
same,increase in MBP (%),"[6]; rat, in vivo, iv, 3 mg/kg",5.6 ± 1.1%
Cc1n[nH]c2cc(OCCNC[C@H](O)c3cccc(NS(=O)(=O)c4cc(N)ccc4F)c3)ccc12 [ex61],number of experimental animals matching Score 0 (no piloerection),[1]; [10],4
same,number of experimental animals matching Score 0 (no piloerection),[1]; [11],4
same,number of experimental animals matching Score 0 (no piloerection),[1]; [12],4
same,number of experimental animals matching Score 0 (no piloerection),[1]; [13],4
same,Emax,[2],64%
same,EC50,[2],0.2 nM
same,Emax,[3],0%
same,Emax,[4],-3%
same,Emax,[5],17%
same,increase in MBP (%),[6]; [14],4.7 ± 1.2%
"Cc1n[nH]c2cc(OCCNC[C@H](O)c3cccc(NS(=O)(=O)c4cnn(C)c4)c3)ccc12 [ex79, (R)-N-(3-(1-hydroxy-2-(2-(3-methylindazol-6-yloxy)ethylamino)ethyl)phenyl)-1-methyl-pyrazole-4-sulfonamide]",number of experimental animals matching Score 0 (no piloerection),[1]; [10],3
same,number of experimental animals matching Score 0.5,"[1]; 10 mg/kg i.v., n=4, observation time 5 min",1
same,number of experimental animals matching Score 0 (no piloerection),[1]; [11],3
same,number of experimental animals matching Score 0.5,"[1]; 10 mg/kg i.v., n=4, observation time 15 min",1
same,number of experimental animals matching Score 0 (no piloerection),[1]; [12],3
same,number of experimental animals matching Score 0.5,"[1]; 10 mg/kg i.v., n=4, observation time 30 min",1
same,number of experimental animals matching Score 0 (no piloerection),[1]; [13],4
same,Emax,[2],84%
same,EC50,[2],54 nM
same,Emax,[3],0%
same,Emax,[4],7%
same,Emax,[5],7%
same,increase in MBP (%),[6]; [14],4.2 ± 1.8%
"O=S(=O)(Nc1cccc([C@@H](O)CNCCOc2ccc3c(OC(F)F)n[nH]c3c2)c1)c1cn[nH]c1 [ex113, (R)-N-(3-(2-(2-(3-(difluoromethoxy)-indazol-6-yloxy)ethylamino)-1-hydroxyethyl)phenyl)pyrazole-4-sulfonamide]",number of experimental animals matching Score 0 (no piloerection),[1]; [10],4
same,number of experimental animals matching Score 0 (no piloerection),[1]; [11],4
same,number of experimental animals matching Score 0 (no piloerection),[1]; [12],4
same,number of experimental animals matching Score 0 (no piloerection),[1]; [13],4
same,β1 receptor % of Control Agonist Response,[7],3.7%
same,Emax,[2],108%
same,EC50,[2],22 nM
same,Emax,[4],3%
same,"α1 receptor % of Control Agonist Response, Control; Epinephrine",[8]; epinephrine = 100%,6.9%
same,"α1 receptor % of Control Agonist Response, Control; Norepinephrine",[8]; norepinephrine = 100%,6.0%
same,increase in MBP (%),[6]; [14],3.3 ± 1.7%
same,β2 receptor % of Control Agonist Response,[9],0.2%
O=S(=O)(Nc1cccc([C@@H](O)CNCCOc2ccc3c(C4CC4)n[nH]c3c2)c1)C1CC1 [ex212],number of experimental animals matching Score 0 (no piloerection),[1]; [10],4
same,number of experimental animals matching Score 0 (no piloerection),[1]; [11],4
same,number of experimental animals matching Score 0 (no piloerection),[1]; [12],4
same,number of experimental animals matching Score 0 (no piloerection),[1]; [13],4
same,Emax,[2],95%
same,EC50,[2],29 nM
same,Emax,[3],0%
same,Emax,[4],15%
same,Emax,[5],6%
same,increase in MBP (%),[6]; [14],2.1 ± 1.7%
